The source of these data is article PMC2629123, “Trypanosoma cruzi CYP51 Inhibitor Derived from a Mycobacterium tuberculosis Screen Hit” (PLoS Neglected Tropical Diseases, 2009).

In one experiment the target is T1, CYP51Tb (Trypanosoma brucei brucei, UniProt Q385E8, L2A).
T1 construct: His8 (C); made in house; host or cells: E. coli HMS174(DE3) co-transformed with pGro7 (GroES/GroEL)
As to the kind of experiment: biochemical. The format is binding. Conditions: spectral titration, room temperature, pH 7.5.

The target in the next experiment is T2, CYP51Tc (Trypanosoma cruzi, UniProt Q7Z1V1).
T2 construct: His6 (C); made in house; host or cells: Escherichia coli HMS174(DE3)
T2 sequence (Q7Z1V1 21-481, looked up, natural form): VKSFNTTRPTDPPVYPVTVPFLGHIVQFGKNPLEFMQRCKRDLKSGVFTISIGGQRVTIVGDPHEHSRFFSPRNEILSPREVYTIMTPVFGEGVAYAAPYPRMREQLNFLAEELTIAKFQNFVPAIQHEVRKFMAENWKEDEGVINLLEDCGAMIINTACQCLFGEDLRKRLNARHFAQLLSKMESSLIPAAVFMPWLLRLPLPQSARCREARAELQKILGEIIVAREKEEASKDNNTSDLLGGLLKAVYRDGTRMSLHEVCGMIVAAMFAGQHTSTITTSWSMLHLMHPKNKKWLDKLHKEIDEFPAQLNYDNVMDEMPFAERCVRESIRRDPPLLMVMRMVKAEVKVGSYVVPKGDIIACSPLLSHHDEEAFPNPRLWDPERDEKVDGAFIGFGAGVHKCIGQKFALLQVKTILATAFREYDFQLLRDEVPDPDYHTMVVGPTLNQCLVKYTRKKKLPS
Nature of the experiment: biochemical. In kind it is binding.

In experiment [1] the test system is T. cruzi intracellular amastigotes. Nature of the experiment: IC50: T. cruzi intracellular amastigotes in J774 macrophages, parasites/cell. The note with it: 52 h; for mean number of parasites/cell: untreated 3.57±0.5 P/cell. In kind it is cell-based, Trypanosoma cruzi. As to the method: To determine IC50, mouse J774 macrophages were irradiated (1000 rads) to deter growth and plated onto 12-well tissue culture plates. Cells were infected with 10^5 tissue culture trypomastigotes of the Y strain of T. cruzi for 2 h at 37°C, as described above. […] All treatments were performed in triplicate to ensure statistical validity. Cultures were then fixed in 4% paraformaldehyde in PBS for 2 h at room temperature and stained with DAPI (10 nM) in PBS. One hundred cells and their intracellular parasites were quantified as previously described to estimate the mean number of parasites/cell. Mean P/cell data were plotted against compound concentration to estimate the IC50.

Another experiment has as its system T. brucei. Nature of the experiment: T. brucei assay, viability by ATP-bioluminescence (CellTiter-Glo). The note with it: highest tested concentration 10 µM, 48 h. In kind it is cell-based, Trypanosoma brucei. The procedure: Trypanosomes were grown in complete HMI-9 medium containing 10% FBS, 10% Serum Plus medium (Sigma Inc. St. Louis Mo. USA) and 1× penicillin/streptomycin. Trypanosomes were diluted to 1.0×10^5/ml in complete HMI-9 medium. Diluted trypanosomes were aliquoted in Greiner sterile 96-well flat white opaque culture plates using a WellMate cell dispenser (Matrix Tech., Hudson, NH, USA). Compounds 8 and 10 were serially diluted in Me2SO. Trypanosomes were incubated with the compounds for 48 h at 37°C with 5% CO2 before monitoring viability. Trypanosomes were then lysed in the wells by adding 50 µl of CellTiter-GloTM (Promega Inc., Madison, WI, USA). Lysed trypanosomes were placed on an orbital shaker at room temperature for 2 min. The resulting ATP-bioluminescence of the trypanosomes in the 96-well plates was measured at room temperature using an Analyst HT plate reader (Molecular Devices, Sunnyvale, CA, USA).
A general note: ATP-based viability assays read luminescence as a measure of living cells.

The subject of experiment [2] is T. cruzi Y strain trypomastigotes. As to the kind of experiment: T. cruzi assay: infection of J774 mouse macrophages, long-term treatment and cure. The note with it: 10 µM, infected J774 macrophages, treatment up to 27 days then 13–15 days without inhibitor. The format is cell-based, Trypanosoma cruzi. The procedure: Irradiated (1000 rads) J774 mouse macrophages were plated in 12-well tissue culture plates 24 h prior to infection with 10^5 T. cruzi Y strain trypomastigotes for 2 h at 37°C. […] Untreated controls, controls treated with the inhibitor K11777 (10 µM),[31], and uninfected macrophage controls were also included. All cultures were in triplicate and medium was replaced every 48 h. Treatment with CYP51 inhibitors continued for up to 27 days. Subsequently, treated cultures were maintained without inhibitor for an additional 13–15 days to confirm inhibitor effectiveness and cure of infected cells. Cultures were monitored daily by contrast phase microscopy to determine presence of T. cruzi infected cells and free infectious trypomastigotes (Table 2).

Where [3] appears, read: spectral titration, room temperature, pH 7.5, read-out: KD, μM CYP51Tc.

Like-named read-outs stand apart in the source and are kept apart here.

T1 sequence (Q385E8 whole entry L2A): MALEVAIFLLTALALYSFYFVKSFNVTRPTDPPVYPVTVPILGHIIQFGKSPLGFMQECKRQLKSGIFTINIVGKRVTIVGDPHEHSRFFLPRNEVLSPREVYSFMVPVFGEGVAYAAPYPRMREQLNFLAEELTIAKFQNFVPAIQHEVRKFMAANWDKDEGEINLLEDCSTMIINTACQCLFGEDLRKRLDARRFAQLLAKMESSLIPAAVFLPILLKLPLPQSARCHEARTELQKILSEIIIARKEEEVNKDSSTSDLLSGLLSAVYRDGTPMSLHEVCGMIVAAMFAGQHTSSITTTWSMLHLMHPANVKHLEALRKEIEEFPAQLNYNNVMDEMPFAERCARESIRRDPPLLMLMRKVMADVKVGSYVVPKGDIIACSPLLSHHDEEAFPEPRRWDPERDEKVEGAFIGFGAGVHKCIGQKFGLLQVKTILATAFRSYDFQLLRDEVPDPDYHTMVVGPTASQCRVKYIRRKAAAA

Broadly, the Kd is a measure of binding affinity in units of concentration. In the case of `Cn1c(=O)c2c(ncn2CC(=O)Nc2ccncc2)n(C)c1=O` [Compound 7], the values for the Kd on CYP51Tb and on CYP51Tc (setting [3]) were greater than 100 µM and 20.7 ± 0.8 µM, respectively.
`Cc1ccc(S(=O)(=O)NCCCOC(=O)Nc2ccncc2)cc1` [Compound 8, 3-{[(4-methylphenyl)sulfonyl]amino}propylpyridin-4-ylcarbamate]: in experiment [1] (10 µM), the “mean number of parasites/cell” value amounted to 1.22±0.1 P/cell. Moreover, in the experiment on T. brucei, the “inhibitory effects against cultured T. brucei” value is reported as “neither compound 8 nor 10 had any inhibitory effects”. For the same compound, the “KD, μM CYP51Tb” value at CYP51Tb is “no binding”. The compound further showed a Kd on CYP51Tc (KD (affinity toward CYP51Tc), spectral assays) of 0.16 µM. The dissociation constant Kd at CYP51Tc (KD, μM CYP51Tc, spectral titration, room temperature, pH 7.5) was determined as 0.16 ± 0.03 µM. In experiment [2], this compound showed a Host cell survival of 5 days and a T. cruzi development of 5 days.
On CYP51Tb, `CSCC[C@H](NC(=O)[C@H]1CC[C@@H](C)CC1)C(=O)Nc1ccncc1` [Compound 9, cis-4-methyl-N-[(1S)-3-(methylsulfanyl)-1-(pyridin-4-ylcarbamoyl)propyl]cyclohexanecarboxamide] gave a Kd of 6.5 ± 0.6 µM.
The term inhibition denotes the percentage by which the read-out fell short of the control. Broadly, the IC50 is the midpoint of a concentration-inhibition curve. In the case of `CC1CCC(C(=O)NC(Cc2c[nH]c3ccccc23)C(=O)Nc2ccncc2)CC1` (centres unmarked) [Compound 10], in experiment [1] (10 µM), the “mean number of parasites/cell” value came to 0.25±0.01 P/cell. Besides, the inhibition at 10 µM in experiment [1] (Trypanosoma cruzi, 10 µM, read-out: growth inhibition) is 100%. Moreover, in experiment [1] (Trypanosoma cruzi, Y strain, read-out: IC50 for T. cruzi intracellular growth inhibition), the IC50 is roughly 1 nM. Also, the results for the “inhibitory effects against cultured T. brucei” value in the experiment on T. brucei and in the experiment with T. brucei (listed as compound 10) were “neither compound 8 nor 10 had any inhibitory effects” and “inactive”, respectively. Besides, at CYP51Tb, the “KD, μM CYP51Tb” value is listed as “no binding”. Also, the Host cell survival in experiment [2] is given as 40 days. Also, the T. cruzi development result was “No” in experiment [2] and “No parasites survived” in experiment [2] (listed as compound 10).
`CCC(C(=O)Nc1ccncc1)c1ccccc1` (stereo not drawn) [EBPA, α-ethyl-N-4-pyridinyl-benzeneacetamide, reference compound]: the Kd on CYP51Tc (setting [3]) was 0.48 ± 0.08 µM.
